Read-outs that look alike come from different tables or passages of the source.
Key:
CRAF = CRAF (Homo sapiens, UniProt P04049); assay: Kd for RAF kinases: CRAF; assay type: binding
[1] = system: ERK 1,2 phosphorylation in HCT116 cells expressing WT BRAF; assay: HTRF assay for P-ERK determination in HCT116 cells (paradoxical BRAF activation); assay type: cell-based; details: for Emax: Homo sapiens, HCT-116, read-out: Percentage of maximum paradox inducing effect from dabrafenib; for EC50: read-out: P-ERK EC50 conc. at which the compound induces p-ERK activation of 50% of that induced by dabrafenib (Positive control paradox inducer) HCT-116, HCT-116 cells, 1 hour drug incubation, not applicable = activation does not reach 50% of dabrafenib maximum
Description: (§1) DMEM no-phenol red medium supplemented with L-glutamine was purchased from (Thermo Fisher Scientific). Fetal bovine serum (FBS) was purchased from VWR. Advanced ERK phospho-T202/Y204 kit-10,000 tests was purchased from Cisbio cat #64AERPEH. A375 and HCT116 cells were originally obtained from ATCC and banked by the Roche repository. 384-well microplates were purchased from Greiner Bio-One, 384-well, (With Lid, HiBase, Low volume cat 784-080).
(§2) A375 is a cellular cancer model expressing V600E mutated BRAF and HCT116 a cellular cancer model expressing WT BRAF. First generation BRAF inhibitors such as e.g. dabrafenib induce a paradox effect on tumour cells in that they inhibit the growth of V600E mutated BRAF cells (such as e.g. A375), while they activate growth in WT BRAF cells (such as e.g. HCT 116). ERK 1,2 phosphorylation (terminal member of the phosphorylation cascade of the MAPK pathway) is hereafter reported as main readout for the activation status of the MAPK pathway. Prior to the assay, A375 and HCT116 cell lines are maintained in DMEM no-phenol red medium supplemented with 10% fetal bovine serum (FBS). Following compound treatment, P-ERK levels are determined by measuring FRET fluorescence signal induced by selective binding of 2 antibodies provided in the mentioned kit (Cisbio cat #64AERPEH) on ERK protein when phosphorylated at Thr202/Tyr204. Briefly, 8000 cells/well in 12 μl media/well are plated in the 384-well plate and left overnight in the incubator (at 37° C. with 5% CO2-humidified atmosphere), the following day the plate is treated in duplicate with test compounds, dabrafenib and PLX8394 (the latter two as controls) at the following final drug concentrations: 10 μM-3 μM-1 μM-0.3 μM-0.1 μM-0.03 μM-0.01 μM-0.003 μM-0.001 μM, all wells are subjected to DMSO normalization and drug incubation occurs for 1 hour. Then, 4 μl of a 4× lysis buffer supplied with the kit are added to the wells, the plate is then centrifuged for 30 second (300 rcf) and incubated on a plate shaker for 1 h at RT.
(§3) At the end of the incubation 4 μL/well of advanced P-ERK antibody solution (prepared according to manufacturer's instruction) followed by 4 μL/well of criptate P-ERK antibody solution (prepared according to manufacturer's instruction) (Cisbio cat #64AERPEH) are added to test wells.
(§4) In order to allow proper data normalization control wells non drug treated reported in the following table are always included in each plate (according to manufacturer's instruction):
(§5) The plate is then centrifuged at 300 rcf for 30 second, sealed to prevent evaporation and incubated overnight in the dark at room temperature.
The plate is then analyzed and fluorescence emission value collected through a Pherastast FSX (BMG Labtech) apparatus at […].
(§6) The obtained fluorescence values are processed according to the formula Ratio=Signal (620 nm)/Signal (625 nm)*10000 then the average of the ratio on the blank is subtracted to all values.
Data are normalized in the case of HCT116 cells (BRAF activation) considering the average of the ratio (blank subtracted) derived by DMSO only treated cells as 0% and by considering the average of the ratio (blank subtracted) derived by dabrafenib treated cells at the concentration which provides the highest signal as 100%. Individual points are fitted with either sigmoidal or bell shape curves, and the percentage of activation compared to maximum dabrafenib-mediated activation is determined. The EC50 is the concentration at which activation equal to 50% of the maximum achieved by dabrafenib is obtained.
The Percentage of Maximum paradox inducing effect from dabrafenib is determined by evaluating the percentage at which the test compound induce its maximum P-ERK signal as percentage of the highest signal produced by dabrafenib within the dose range tested.

[2] = system: ERK 1,2 phosphorylation in A375 cells expressing V600E mutated BRAF; assay: HTRF assay for P-ERK determination in A375 cells (BRAF inhibition); assay type: cell-based; details: Homo sapiens, A-375, 1 h, read-out: pERK IC50 A375
Description: as §1, with “repository.” for “repository. 384-well microplates were purchased from Greiner Bio-One, 384-well, (With Lid, HiBase, Low volume cat 784-080).”
as §2, with “First generation BRAF inhibitors such as e.g. dabrafenib induce a paradox effect on tumour cells in that they inhibit the growth of V600E mutated BRAF cells (such as e.g. A375), while they activate growth in WT BRAF cells (such as e.g. HCT 116).” left out, “Following compound treatment, P-ERK levels are determined by measuring FRET fluorescence signal induced by selective binding of 2 antibodies provided in the mentioned kit (Cisbio cat #64AERPEH) on ERK protein when phosphorylated at Thr202/Tyr204.” left out
as §3, §4, §5, §6
Data are normalized in the case of A375 cells (BRAF inhibition) considering the average of the ratio (blank subtracted) derived by DMSO only treated cells as 100% and by considering the average of the ratio (blank subtracted) derived by 10 uM dabrafenib treated cells as 0%. Mean of the normalized points are fitted with sigmoidal curve and IC50 determined.

BRAF = BRAF (Homo sapiens, UniProt P15056); assay: Kd for RAF kinases: BRAF; assay type: binding
Chain of BRAF (P15056 whole entry): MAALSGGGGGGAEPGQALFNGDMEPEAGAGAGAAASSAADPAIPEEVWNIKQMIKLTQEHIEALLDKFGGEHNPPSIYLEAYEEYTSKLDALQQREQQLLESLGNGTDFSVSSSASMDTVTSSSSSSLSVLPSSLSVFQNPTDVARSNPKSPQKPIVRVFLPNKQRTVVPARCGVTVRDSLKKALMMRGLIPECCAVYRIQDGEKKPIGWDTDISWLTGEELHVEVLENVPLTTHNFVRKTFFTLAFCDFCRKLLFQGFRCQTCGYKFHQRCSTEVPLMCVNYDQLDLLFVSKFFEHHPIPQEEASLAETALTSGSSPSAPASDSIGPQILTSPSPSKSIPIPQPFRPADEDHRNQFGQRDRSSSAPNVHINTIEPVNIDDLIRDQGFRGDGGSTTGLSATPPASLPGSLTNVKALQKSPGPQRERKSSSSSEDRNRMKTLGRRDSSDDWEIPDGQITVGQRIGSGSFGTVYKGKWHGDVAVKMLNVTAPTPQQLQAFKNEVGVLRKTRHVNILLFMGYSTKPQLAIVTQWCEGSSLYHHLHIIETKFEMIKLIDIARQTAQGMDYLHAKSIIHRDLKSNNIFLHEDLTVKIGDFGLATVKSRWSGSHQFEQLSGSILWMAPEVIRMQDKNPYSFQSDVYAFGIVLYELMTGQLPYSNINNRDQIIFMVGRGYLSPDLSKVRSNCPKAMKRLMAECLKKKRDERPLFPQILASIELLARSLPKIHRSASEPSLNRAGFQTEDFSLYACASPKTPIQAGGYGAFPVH

BRAF (V600E) = BRAF (V600E) (Homo sapiens, UniProt P15056, V600E); assay: Kd for RAF kinases: BRAF (V600E); assay type: binding
Chain of BRAF (V600E) (P15056 whole entry V600E): as the sequence (P15056 whole entry) above, with V600E counted along it

Chain of CRAF (P04049 whole entry): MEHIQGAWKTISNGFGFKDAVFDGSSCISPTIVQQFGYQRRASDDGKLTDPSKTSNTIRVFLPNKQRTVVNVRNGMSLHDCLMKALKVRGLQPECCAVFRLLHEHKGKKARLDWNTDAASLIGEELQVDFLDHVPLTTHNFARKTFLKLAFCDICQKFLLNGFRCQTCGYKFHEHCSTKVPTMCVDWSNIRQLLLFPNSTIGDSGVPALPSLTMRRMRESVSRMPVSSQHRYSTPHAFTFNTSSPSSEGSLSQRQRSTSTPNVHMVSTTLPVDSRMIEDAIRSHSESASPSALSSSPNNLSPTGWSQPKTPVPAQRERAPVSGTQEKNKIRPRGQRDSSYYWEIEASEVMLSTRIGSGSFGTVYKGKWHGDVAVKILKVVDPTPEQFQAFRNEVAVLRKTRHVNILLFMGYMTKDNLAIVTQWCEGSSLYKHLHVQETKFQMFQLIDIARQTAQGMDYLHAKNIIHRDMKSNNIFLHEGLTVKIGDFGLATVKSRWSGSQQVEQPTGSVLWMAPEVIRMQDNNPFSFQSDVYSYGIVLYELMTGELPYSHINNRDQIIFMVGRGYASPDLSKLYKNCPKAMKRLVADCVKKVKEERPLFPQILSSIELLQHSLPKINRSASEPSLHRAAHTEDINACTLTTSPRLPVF

Kd (CRAF) [nM] | EC50 [1] [nM] | IC50 [2] [nM] | Kd (BRAF; read-out: Kd BRAF) [nM] | Kd (BRAF (V600E); read-out: Kd BRAF (V600E)) [nM] | Kd (BRAF) [nM] | Kd (BRAF (V600E)) [nM] | Structure (SMILES) | Emax [1] [%]
1.5 | 204 | 13.7 | 1.4 | 0.7 |  |  | Cn1cnc2ccc(Nc3c(Cl)ccc(NS(=O)(=O)N4CCCC4)c3C#N)cc2c1=O [Example 14, N-[4-chloro-2-cyano-3-[(3-methyl-4-oxo-quinazolin-6-yl)amino]phenyl]pyrrolidine-1-sulfonamide] | 74
9.8 |  | 9.2 |  |  | 2 | 7.5 | Cn1cnc2ccc(Nc3cccc(NS(=O)(=O)N4CC[C@@H](F)C4)c3C#N)cc2c1=O [Example 12, (3R)—N-[2-cyano-3-[(3-methyl-4-oxo-quinazolin-6-yl)amino]phenyl]-3-fluoro-pyrrolidine-1-sulfonamide] | 49
8.9 |  | 26.2 |  |  | 8.9 | 4.5 | Cn1cnc2ccc(Oc3cccc(NS(=O)(=O)N4CC[C@@H](F)C4)c3C#N)cc2c1=O [Example 7, (3R)—N-[2-cyano-3-(3-methyl-4-oxo-quinazolin-6-yl)oxy-phenyl]-3-fluoro-pyrrolidine-1-sulfonamide] | 32
0.8 | 172 | 1.6 | 0.4 | 0.9 |  |  | Cn1cnc2ccc(Oc3c(F)ccc(NS(=O)(=O)N4CCCC4)c3C#N)cc2c1=O [Example 15, N-[2-cyano-4-fluoro-3-(3-methyl-4-oxo-quinazolin-6-yl)oxy-phenyl]pyrrolidine-1-sulfonamide] | 63
1.6 | 714 | 34.3 |  |  | 2.1 | 4.6 | Cn1cnc2ccc(Oc3c(Cl)ccc(NS(=O)(=O)N4CCCC4)c3C#N)cc2c1=O [Example 4, N-[4-chloro-2-cyano-3-(3-methyl-4-oxo-quinazolin-6-yl)oxy-phenyl]pyrrolidine-1-sulfonamide] | 65
1.8 | 412 | 5.3 |  |  | 3.3 | 7 | Cn1cnc2ccc(Oc3cccc(NS(=O)(=O)C4CCCC4)c3C#N)cc2c1=O [Example 8, N-[2-cyano-3-(3-methyl-4-oxo-quinazolin-6-yl)oxy-phenyl]cyclopentanesulfonamide] | 63
1.1 | 648 | 17.1 |  |  | 1.6 | 2.6 | Cn1cnc2ccc(Oc3cccc(NS(=O)(=O)N4CCCC4)c3C#N)cc2c1=O [Example 6, N-[2-cyano-3-(3-methyl-4-oxo-quinazolin-6-yl)oxy-phenyl]pyrrolidine-1-sulfonamide] | 59
0.7 | 152 | 2.3 |  |  | 1 | 1.9 | Cn1cnc2ccc(Oc3c(F)ccc(NS(=O)(=O)C4CCCC4)c3C#N)cc2c1=O [Example 16, N-[2-cyano-4-fluoro-3-(3-methyl-4-oxo-quinazolin-6-yl)oxy-phenyl]cyclopentanesulfonamide] | 70
6.3 | > 1000 | 5.5 | 1.6 | 3.4 |  |  | CCN(C)S(=O)(=O)Nc1ccc(F)c(Oc2ccc3ncn(C)c(=O)c3c2)c1C#N [Example 1, 6-[2-cyano-3-[[ethyl(methyl)sulfamoyl]amino]-6-fluoro-phenoxy]-3-methyl-4-oxo-quinazoline] | 56
9.4 | > 1000 | 14.8 |  |  | 10 | 6.3 | Cn1cnc2ccc(Oc3c(Cl)ccc(NS(=O)(=O)N4CC[C@@H](F)C4)c3C#N)cc2c1=O [Example 3, (3R)—N-[4-chloro-2-cyano-3-(3-methyl-4-oxo-quinazolin-6-yl)oxy-phenyl]-3-fluoro-pyrrolidine-1-sulfonamide] | 61
5.4 | > 1000 | 28.6 |  |  | 30.4 | 36.8 | CCN(C)S(=O)(=O)Nc1ccc(Cl)c(Oc2ccc3ncn(C)c(=O)c3c2)c1C#N [Example 2, 6-[6-chloro-2-cyano-3-[[ethyl(methyl)sulfamoyl]amino]phenoxy]-3-methyl-4-oxo-quinazoline] | 69
0.8 |  | 13.9 | 2.4 | 4 |  |  | Cn1cnc2ccc(Oc3cccc(NS(=O)(=O)C4CCCCC4)c3C#N)cc2c1=O [Example 9, N-[2-cyano-3-(3-methyl-4-oxo-quinazolin-6-yl)oxy-phenyl]cyclohexanesulfonamide] | 44
3 | 970 | 2.6 |  |  | 1.7 | 4.3 | CN(C)S(=O)(=O)Nc1ccc(F)c(Oc2ccc3ncn(C)c(=O)c3c2)c1C#N [Example 17, 6-[2-cyano-3-(dimethylsulfamoylamino)-6-fluoro-phenoxy]-3-methyl-4-oxo-quinazoline] | 71
52.3 | > 1000 | 19.7 | 11.6 | 26.5 |  |  | CCN(C)S(=O)(=O)Nc1cccc(Nc2ccc3ncn(C)c(=O)c3c2)c1C#N [Example 11, 6-[2-cyano-3-[[ethyl(methyl)sulfamoyl]amino]anilino]-3-methyl-4-oxo-quinazoline] | 61
6.8 | > 1000 | 14.8 |  |  | 4.3 | 10 | CCN(C)S(=O)(=O)Nc1ccc(Cl)c(Nc2ccc3ncn(C)c(=O)c3c2)c1C#N [Example 13, 6-[6-chloro-2-cyano-3-[[ethyl(methyl)sulfamoyl]amino]anilino]-3-methyl-4-oxo-quinazoline] | 67

Reference: US20220298145A1, “BRAF INHIBITORS AS PARADOX BREAKERS” (Hoffmann-La Roche Inc., priority 2019, published 2022)
